What all share (test): relative viability (nuclei count vs DMSO), 5 days (fraction); higher = more cells survive
Compound in experiment [1]: Nc1ccccc1NC(=O)c1ccc(CNC(=O)OCc2cccnc2)cc1 [Entinostat] + CC(=O)c1c(C)c2cnc(Nc3ccc(N4CCNCC4)cn3)nc2n(C2CCCC2)c1=O [Palbociclib] (partner 0.5 µM)
In outline: (§1)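 The day after seeding in 1536-well plates, lung cancer cell lines were treated by pin tool with a single drug, or with a fixed anchor-drug dose together with five library-drug doses (not always all listed) in √10 steps. After 5 days, a combined fix-and-stain solution (final 0.05% Triton X-100, 1% formaldehyde, 1 ug/ml Hoechst) was added. Nuclei counted on 4× images gave relative viability as treated counts over vehicle counts, reported as the median of duplicate plates.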

Compound in experiment [2]: Nc1ccccc1NC(=O)c1ccc(CNC(=O)OCc2cccnc2)cc1 [Entinostat] + NC(=O)Nc1cc(-c2cccc(F)c2)sc1C(=O)N[C@H]1CCCNC1 [AZD7762] (partner 0.2 µM)
In outline: as §1

Compound in experiment [3]: Nc1ccccc1NC(=O)c1ccc(CNC(=O)OCc2cccnc2)cc1 [Entinostat] + CC(=O)Nc1cccc(-n2c(=O)n(C3CC3)c(=O)c3c(Nc4ccc(I)cc4F)n(C)c(=O)c(C)c32)c1 [Trametinib] (partner 0.02 µM)
An outline of the steps:
as §1

Compound in experiment [4]: C1COCCN1C2=NC(=NC3=C2OC4=C3C=CC=N4)C5=CC(=CC=C5)NC(=O)C6=CN=C(C=C6)N + CS(=O)(=O)N1CCN(Cc2cc3nc(-c4cccc5[nH]ncc45)nc(N4CCOCC4)c3s2)CC1 [Pictilisib] (partner 1 µM)
In outline: as §1

On to NCI-H2347, for which the relative viability in experiment [1] (first compound 0.02 µM) is 0.48; in experiment [1] (first compound 0.06325 µM), 0.387; in experiment [1] (first compound 0.2 µM) it was 0.361; in experiment [1] (first compound 0.6325 µM), 0.339; in experiment [1] (first compound 2 µM) it was 0.261; in experiment [2] (first compound 0.02 µM), 0.741. For the same cell line, the relative viability in experiment [2] (first compound 0.06325 µM) turned out to be 0.755; in experiment [2] (first compound 0.2 µM) it was 0.576; in experiment [2] (first compound 0.6325 µM), 0.378; in experiment [2] (first compound 2 µM), 0.255; in experiment [3] (first compound 0.02 µM), 0.254; in experiment [3] (first compound 0.06325 µM), 0.273. Also, the relative viability in experiment [3] (first compound 0.2 µM) came to 0.218; in experiment [3] (first compound 0.6325 µM), 0.205; in experiment [3] (first compound 2 µM) it was 0.222; in experiment [4] (first compound 0.02 µM), 0.735; in experiment [4] (first compound 0.06325 µM), 0.703; in experiment [4] (first compound 0.2 µM), 0.601. The results for the relative viability in experiment [4] (first compound 0.6325 µM) and in experiment [4] (first compound 2 µM) were 0.619 and 0.497, respectively.

As to NCI-H2405, the relative viability stood at 0.515 in experiment [1] (first compound 0.02 µM); 0.531 in experiment [1] (first compound 0.06325 µM); 0.571 in experiment [1] (first compound 0.2 µM); 0.532 in experiment [1] (first compound 0.6325 µM); 0.453 in experiment [1] (first compound 2 µM); 0.795 in experiment [2] (first compound 0.02 µM). The relative viability in experiment [2] (first compound 0.06325 µM) was 0.896; in experiment [2] (first compound 0.2 µM), 0.704; in experiment [2] (first compound 0.6325 µM) it was 0.641; in experiment [2] (first compound 2 µM) it was 0.495; in experiment [3] (first compound 0.02 µM), 0.647; in experiment [3] (first compound 0.06325 µM), 0.722. Besides, the relative viability in experiment [3] (first compound 0.2 µM) was found to be 0.651; in experiment [3] (first compound 0.6325 µM) it was 0.608; in experiment [3] (first compound 2 µM) it was 0.542; in experiment [4] (first compound 0.02 µM), 0.431; in experiment [4] (first compound 0.06325 µM) it was 0.45; in experiment [4] (first compound 0.2 µM), 0.414. Also, the relative viability in experiment [4] (first compound 0.6325 µM) turned out to be 0.428; in experiment [4] (first compound 2 µM) it was 0.423.

NCI-H3122: the relative viability was 0.191 in experiment [1] (first compound 0.02 µM); 0.217 in experiment [1] (first compound 0.06325 µM); 0.208 in experiment [1] (first compound 0.2 µM); 0.181 in experiment [1] (first compound 0.6325 µM); 0.187 in experiment [1] (first compound 2 µM); 1.03 in experiment [2] (first compound 0.02 µM). In addition, the relative viability in experiment [2] (first compound 0.06325 µM) was determined as 1.01; in experiment [2] (first compound 0.2 µM), 1.15; in experiment [2] (first compound 0.6325 µM), 0.971; in experiment [2] (first compound 2 µM), 0.805; in experiment [3] (first compound 0.02 µM) it was 0.265; in experiment [3] (first compound 0.06325 µM), 0.259. Besides, the relative viability in experiment [3] (first compound 0.2 µM) amounted to 0.27; in experiment [3] (first compound 0.6325 µM) it was 0.208; in experiment [3] (first compound 2 µM), 0.212; in experiment [4] (first compound 0.02 µM) it was 0.621; in experiment [4] (first compound 0.06325 µM) it was 0.588; in experiment [4] (first compound 0.2 µM), 0.531. In addition, the relative viability in experiment [4] (first compound 0.6325 µM) was found to be 0.515; in experiment [4] (first compound 2 µM), 0.451.

For the cell line PC-3 [JPC-3], the relative viability in experiment [1] (first compound 0.02 µM) worked out at 0.529; in experiment [1] (first compound 0.06325 µM), 0.47; in experiment [1] (first compound 0.2 µM), 0.486; in experiment [1] (first compound 0.6325 µM), 0.442; in experiment [1] (first compound 2 µM), 0.378; in experiment [2] (first compound 0.02 µM), 1.06. Further, the relative viability is 0.804 in experiment [2] (first compound 0.06325 µM); 0.738 in experiment [2] (first compound 0.2 µM); 0.522 in experiment [2] (first compound 0.6325 µM); 0.231 in experiment [2] (first compound 2 µM); 0.726 in experiment [3] (first compound 0.02 µM); 0.642 in experiment [3] (first compound 0.06325 µM). The relative viability in experiment [3] (first compound 0.2 µM) was 0.579; in experiment [3] (first compound 0.6325 µM), 0.51; in experiment [3] (first compound 2 µM) it was 0.502; in experiment [4] (first compound 0.02 µM), 0.754; in experiment [4] (first compound 0.06325 µM), 0.831; in experiment [4] (first compound 0.2 µM), 0.739. In addition, the relative viability turned out to be 0.798 in experiment [4] (first compound 0.6325 µM) and 0.629 in experiment [4] (first compound 2 µM).

With PC-14, the relative viability in experiment [1] (first compound 0.02 µM) amounted to 0.521; in experiment [1] (first compound 0.06325 µM), 0.493; in experiment [1] (first compound 0.2 µM), 0.449; in experiment [1] (first compound 0.6325 µM), 0.157; in experiment [1] (first compound 2 µM), 0.0723; in experiment [2] (first compound 0.02 µM), 0.577. Moreover, the relative viability was 0.364 in experiment [2] (first compound 0.06325 µM); 0.397 in experiment [2] (first compound 0.2 µM); 0.165 in experiment [2] (first compound 0.6325 µM); 0.0725 in experiment [2] (first compound 2 µM); 0.653 in experiment [3] (first compound 0.02 µM); 0.61 in experiment [3] (first compound 0.06325 µM). Moreover, the relative viability in experiment [3] (first compound 0.2 µM) worked out at 0.502; in experiment [3] (first compound 0.6325 µM), 0.145; in experiment [3] (first compound 2 µM), 0.0754; in experiment [4] (first compound 0.02 µM) it was 0.903; in experiment [4] (first compound 0.06325 µM) it was 1.05; in experiment [4] (first compound 0.2 µM), 0.512. The relative viability in experiment [4] (first compound 0.6325 µM) worked out at 0.558; in experiment [4] (first compound 2 µM), 0.261.

As to RERF-LC-KJ, the relative viability in experiment [1] (first compound 0.02 µM) amounted to 1.06; in experiment [1] (first compound 0.06325 µM), 1.09; in experiment [1] (first compound 0.2 µM) it was 1; in experiment [1] (first compound 0.6325 µM), 0.584; in experiment [1] (first compound 2 µM), 0.278; in experiment [2] (first compound 0.02 µM) it was 1.12. Besides, the relative viability in experiment [2] (first compound 0.06325 µM) stood at 1.07; in experiment [2] (first compound 0.2 µM) it was 0.748; in experiment [2] (first compound 0.6325 µM) it was 0.707; in experiment [2] (first compound 2 µM) it was 0.329; in experiment [3] (first compound 0.02 µM), 0.915; in experiment [3] (first compound 0.06325 µM) it was 0.833. Besides, the relative viability in experiment [3] (first compound 0.2 µM) is 0.726; in experiment [3] (first compound 0.6325 µM) it was 0.418; in experiment [3] (first compound 2 µM), 0.323; in experiment [4] (first compound 0.02 µM), 0.46; in experiment [4] (first compound 0.06325 µM), 0.618; in experiment [4] (first compound 0.2 µM) it was 0.508. Further, the relative viability in experiment [4] (first compound 0.6325 µM) was determined as 0.507; in experiment [4] (first compound 2 µM), 0.478.
